Experimental data: US7718681B2, “5-(1,3-Diaryl-1H-pyrazol-4-ylmethylene)-thiazolidine,2,4-dione derivatives useful as anticancer agent” (Korea Research Institute of Chemical Technology, priority 2005, dated 2010)

Tests used:
MCF-7 = experiment: Cell cytotoxicity assay (SRB), MCF-7; format: cell-based; conditions: Homo sapiens, MCF7, MCF-7, 10 μM, 48 hours, read-out: % of inhibition of growth of cancer cells
Description: (§1) A549, HT29 and MCF-7 were used to measure anticancer activity. The cancer cells were those distributed from the National Cancer Institute (NCI) of the U.S. and cultured by the Korea Research Institute of Chemical Technology (KRICT), which had been derived from human tumor cell lines. The cells were cultured in a 5% CO2 incubator at 37° C. with constant temperature and humidity using RPMI 1640 culture medium fortified with 5% fetal bovine serum. Subculturing was carried out once in 3-4 days. A PBS (phosphate buffered saline) solution in which 0.25% trypsin and […] trans-1,2-diaminocyclohexane-N,N,N,N-tetraacetic acid (CDTA) were dissolved was used to separate the cells.
(§2) The SRB (sulforhodamine B) assay method, which was developed in 1989 to measure in vitro anticancer activity of drugs by the NCI, was used. The cells were separated using a trypsin-CDTA solution and were plated on a 96-well microplate (Falcon), about 2×10^3 cells per each well. The cells were cultured in a CO2 incubator for 24 hours and were attached to the bottom of the plate. After removing the culture medium using an aspirator, each of Compound No. 78, Compound No. 79 and Doxorubicin, a control drug, diluted in a culture medium was added to the wells containing the cells, with a log dose of 6 equivalents, 3 times, […] at one time. The cells were cultured for 48 more hours. If required, dimethylsulfoxide (DMSO) was used to dissolve the compounds. The diluted compound solutions were filtered through a […] filter before being added to the cells. […] Then, absorbance was measured at 520 nm using a microplate reader. In order to quantify the anticancer effect of the compounds, number of cells was counted for the cases where the drug was added (Tz), the cells were cultured for 48 hours with a culture medium containing no drug (C) and the cells were cultured for 48 hours with a culture medium containing the drug (T). Anticancer activity was calculated by the following equations 1 and 2. […]

[1] = system: C33A human uterine cancer cell line
Description: In order to verify the in vivo anticancer effect of the compounds of the present invention, C33A human uterine cancer cell line was subcutaneously injected at the abdominal walls of 6- to 8-week-old male nude mice. […] For a positive control, cisplatin (4 mg/kg), which is widely used as an anticancer agent in clinical tests, was used. The dosage given was 0.25 mL per each administration once a day for a period of 7 consecutive days. The volume of the tumor was calculated by the following equation 3, by measuring the long and short axes with a caliper. Tumor volume=(Short axis,mm)^2×(Long axis,mm)×0.523 Equation 3

HT29 = experiment: Cell cytotoxicity assay (SRB), HT29; format: cell-based; conditions: Homo sapiens, HT-29, HT29, 10 μM, 48 hours, read-out: % of inhibition of growth of cancer cells
Description: as §1, §2

CDC25B = target: T1, CDC25B (Homo sapiens, UniProt P30305); experiment: CDC25B enzyme assay; format: biochemical; conditions: catalytic domain of CDC25B (aa 378-566) GST fusion, 20 μm FDP, 1 hour at room temperature, fluorescence
T1 construct: Catalytic domain of CDC25B (aa 378-566) was expressed and produced in E. coli into a GST fusion protein; GST; made in house; host or cells: E. coli
T1 sequence (P30305 378-566 isoform P30305-2): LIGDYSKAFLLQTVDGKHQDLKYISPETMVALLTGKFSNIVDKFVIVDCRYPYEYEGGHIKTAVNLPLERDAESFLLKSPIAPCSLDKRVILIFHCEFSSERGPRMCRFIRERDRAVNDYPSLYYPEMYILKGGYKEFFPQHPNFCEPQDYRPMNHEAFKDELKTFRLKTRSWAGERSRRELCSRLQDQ
Description: Catalytic domain of CDC25B (aa 378-566) was expressed and produced in E. coli into a GST fusion protein, which was used as zymogen. Enzyme assay was carried out on a 96-well plate, with the final reaction volume per well adjusted to 200 μL. 170 μL of a buffer solution (30 mM Tris buffer, pH 8.5, 75 mM NaCl, 0.67 mM EDTA, 1 mM DTT), 20 μL (0.2 μg) of CDC25B enzyme and 10 μL of the test compound dissolved in DMSO were added, so that the final concentration became 1 μg/mL CDC25B and 20 μm FDP. Measurement was made after culturing at room temperature for 1 hour. FDP and DTT were added to the buffer solution just before assay, so that a fresh status could be maintained. After 1 hour of culturing, fluorescence resultant from the enzymatic reaction was measured at 485 nm (excitation) and 538 nm (emission).
The screened compound was treated to a final concentration of 1, 2, 5 and 10 μm to obtain the % inhibition value. If the inhibitory effect was low (less than 50% at […]), the concentration of the compound was increased to 20 μm and the % inhibition value and the IC50 value were obtained.

A549 = experiment: Cell cytotoxicity assay (SRB), A549; format: cell-based; conditions: Homo sapiens, A549, 10 μM, 48 hours, read-out: % of inhibition of growth of cancer cells
Description: as §1, §2

In the case of CCOc1ccc(-c2nn(-c3ccccc3)cc2C=C2SC(=O)N(C)C2=O)cc1Br [Compound 78, 5-[3-(3-bromo-4-ethoxy-phenyl)-1-phenyl-1H-pyrazol-4-ylmethylene]-3-methyl-thiazolidine-2,4-dione], the inhibition at 10 µM (MCF-7) is reported as 67.3%, the “anticancer activity (tumor volume)” value ([1]; C33A tumor in male nude mice, into the abdominal cavity once a day for 7 days, FIG. 1, cisplatin 4 mg/kg positive control) is reported as “comparable to that of cisplatin” and the “negative responses (reduced motion, lack of appetite)” value ([1]; mouse, in vivo) is reported as “did not shows any negative responses”. It also gave an inhibition at 10 µM (HT29) of 59.7%, an IC50 (CDC25B) of 2.26 µM and an inhibition at 10 µM (A549) of 67.5%.
CCOc1ccc(-c2nn(-c3ccccc3)cc2C=C2SC(=O)N(CC)C2=O)cc1Br [Compound 79, 5-[3-(3-bromo-4-ethoxy-phenyl)-1-phenyl-1H-pyrazol-4-ylmethylene]-3-ethyl-thiazolidine-2,4-dione] gave an inhibition at 10 µM (MCF-7) of 31.1%, an inhibition at 10 µM (HT29) of 82.4% and an IC50 (CDC25B) of 1.41 µM. The inhibition at 10 µM (A549) was 39.1%.
For COc1cccc2c1C(=O)c1c(O)c3c(c(O)c1C2=O)C[C@@](O)(C(=O)CO)C[C@@H]3O[C@H]1C[C@H](N)[C@H](O)[C@H](C)O1 [Doxorubicin, reference compound], the inhibition at 10 µM (MCF-7) was 63.2%, the inhibition at 10 µM (HT29) was 51.1% and the inhibition at 10 µM (A549) was 39%.
